Source: patent US9670217B2, “Process for preparing chlorins and their pharmaceutical uses” (UNIVERSIDADE DE COIMBRA, priority 2008, dated 2017)

Legend:
[1] = Fluorescence quantum yield; format: physicochemical; conditions: in aqueous solution
Method: The absorptions of both reference and sample solutions were matched at ca 0.2 at the excitation wavelength of 515.5 nm, and the solutions were diluted by a factor 10 before collecting the fluorescence. The fluorescence quantum yield was obtained from the ratio of the fluorescence bands of the sample vs the reference, multiplied by the fluorescence quantum yield of the reference, 0.012 according to [12], after correction for the difference of refractive indexes of ethanol and toluene.
(§1) This is indicative of little aggregation between the molecules, which exist mostly as monomers at these concentrations in the solvents studied. Table 1 presents typical red and infrared molar absorption coefficients (εmax) and wavelength maxima. The same table also presents representative fluorescence quantum yields (ΦF) of Luzitins. The fluorescence quantum yields decrease of these molecules decrease in the presence of chlorine substituents, a fingerprint of the heavy atom effect expected for such molecules.

[2] = system: SKMEL 188 (human melanoma); test: Cell photosensitization, filtered halogen lamp, MTT; format: cell-based; conditions: [Luzitin-Cl-c] = 20 μM
Method: (§2) Irradiation in in vitro experiments was performed using either a halogen lamp or a laser source. In the first case, a 500 W halogen lamp was placed 50 cm from the irradiated plate to insure a homogeneous irradiation. A cooled water filter (d=35 mm) and a 600 nm cut off filter were placed between the lamp and samples. The fluence rate reaching samples was 3 mW/cm^2. The emission spectrum of the halogen lamp was recorded using a spectroradiometer IL2000 (Spectrocube), FIG. 1. In the second case, three Lynx external cavity diode lasers TEC 500 powered by PilotPC 500 Laser Controllers (Sacher Lasertechnik, Marburg, Germany) were employed. The laser energies were stable at 40 mW for the 748 nm laser, 10 mW for the 649 laser and 10 mW for the 633 laser. The laser energies were regularly measured with a Coherent LaserCheck. In some in vitro experiments, the laser light was focused on an optical fiber through a collimator in microbench, and delivered to the cells. This system reduced the 748 nm laser light to 30 mW.
The cell lines employed in halogen lamp irradiation were the MCF7 (human breast carcinoma), SKMEL 188 (human melanoma) and S91/I3 (mouse melanoma) cells. They were used both for cytotoxicity and photocytotoxicity experiments. MCF7 cells were grown supplemented with 10% fetal calf (FBS) serum, 25 units/ml of penicillin, and 25 μg/ml of streptomycin. Human melanoma cells SKMEL-188 were grown in F10 medium supplemented with 10% fetal calf serum (FCS), 100 units/ml of penicillin, and 100 μg/ml of streptomycin. I3 subline of Cloudman S91 melanoma cells were cultured in RPMI 1640 medium supplemented with 100 units/ml of penicillin, 100 μg/ml streptomycin and 5% fetal calf serum (FCS) (Gibco BRL). […]
Cytotoxicity. Cell metabolic efficiency and viability were determined by the uptake and reduction of 3-(4,5-dimethylthiazol-2-yl)-2,5-diphenyl tetrazolium bromide (MTT) to an insoluble formazan dye by cellular microsomal enzymes. […] The 96-well culture plate was shaken for 0.5 min at room temperature and immediately read for optical density at 560 nm using an ELISA reader (GENios Plus; Tecan Trading AG, Switzerland). The cell survival was expressed by the absorbance changes of the formazan salt, and survival rate was given as the percent ratio of viable treated cells vs. the number of viable untreated cells. Number of cells was determined from linear regression of a calibration curve.
Cell photosensitization. […] The values were obtained from three independent experiments and expressed as percent of cell survival with reference to control cells, which were manipulated in the same manner but without incubation with photosensitizer and without illumination.

[3] = system: MCF7 (human breast carcinoma); test: as above; format: cell-based; conditions: [Luzitin-Cl-c] = 20 μM, filtered halogen lamp
Method: as §2
(§3) The cell lines employed in halogen lamp irradiation were the MCF7 (human breast carcinoma), SKMEL 188 (human melanoma) and S91/I3 (mouse melanoma) cells. They were used both for cytotoxicity and photocytotoxicity experiments. MCF7 cells were grown supplemented with 10% fetal calf (FBS) serum, 25 units/ml of penicillin, and 25 μg/ml of streptomycin. Human melanoma cells SKMEL-188 were grown in F10 medium supplemented with 10% fetal calf serum (FCS), 100 units/ml of penicillin, and 100 μg/ml of streptomycin. I3 subline of Cloudman S91 melanoma cells were cultured in RPMI 1640 medium supplemented with 100 units/ml of penicillin, 100 μg/ml streptomycin and 5% fetal calf serum (FCS) (Gibco BRL). All cell lines were cultivated as monolayer in Petri dishes of 60 mm diameter and incubated at 37° C. in a humid atmosphere containing 5% CO2.
(§4) Cytotoxicity. Cell metabolic efficiency and viability were determined by the uptake and reduction of 3-(4,5-dimethylthiazol-2-yl)-2,5-diphenyl tetrazolium bromide (MTT) to an insoluble formazan dye by cellular microsomal enzymes. The cell lines were grown in RPMI medium with 10% fetal calf serum, penicillin and streptomycin. Cells were maintained in 5% CO2, 95% air and 100% humidity. For determining cytotoxicity, these cells were plated in 96-well plates at a density of 1×10^4 cells well in complete media. After 24 h, the cells were incubated with photosensitizers at different concentrations (0.25 up to 50 μM) for 18 hours at 37° C. The cells were then washed twice with PBS and incubated in growth medium at 37° C. for 24 h. Next, the medium was replaced by 100 μl of fresh medium and 20 μl of MTT, and the cells were incubated with MTT for 3 h, with a final concentration of 0.5 mg/ml. Then the culture medium was replaced with DMSO-methanol solution (1:1) to dissolve the blue formazan crystals. The 96-well culture plate was shaken for 0.5 min at room temperature and immediately read for optical density at 560 nm using an ELISA reader (GENios Plus; Tecan Trading AG, Switzerland). The cell survival was expressed by the absorbance changes of the formazan salt, and survival rate was given as the percent ratio of viable treated cells vs. the number of viable untreated cells. Number of cells was determined from linear regression of a calibration curve.
(§5) Cell photosensitization. SKMEL 188, S91 and MCF7 cells were prepared as described above. […] The cells were incubated for 12 h at 37° C. and then irradiated at a 0.53 mW cm^2 fluence rate and in doses ranging from 0.1 to 0.64 J cm^2. We recall that photosensitizer uses only ca. ⅕ of the available fluence rate of the filtered halogen lamp. The MTT test was performed 24 h after irradiation. The values were obtained from three independent experiments and expressed as percent of cell survival with reference to control cells, which were manipulated in the same manner but without incubation with photosensitizer and without illumination. […]

S91 (mouse melanoma) = test: as above; format: cell-based; conditions: [Luzitin-Cl-c] = 20 μM
Method: as §2, §3, §4, §5

[4] = Absorption spectra (λmax, molar absorption coefficient); format: physicochemical; conditions: in aqueous solution
Method: Absorption spectra were recorded on a Shimadzu UV-2100 spectrophotometer or with a Carry 50 Biospectrophotometer (Varian, Mulgrave, USA). Fluorescence spectra were measured with a Spex Fluorolog 3 spectrophotometer, with correction for the wavelength dependence system (RCA C31034 photomultiplier), or with a PerkinElmer LS 50 spectrofluorimeter. Transient absorption spectra were measured with an Applied Photophysics LKS 60 nanosecond laser flash photolysis kinetic spectrometer, using the third harmonic of a Spectra-Physics Quanta Ray GCR 130-01 Nd/YAG laser for excitation, a Hamamatsu 1P28 photomultiplier and a Hewlett-Packard Infinium oscilloscope (1 GS/s). Flash photolysis measurements were made in the presence of air and in argon saturated solutions. Photoacoustic calorimetry employed the same Nd/YAG laser, a home-made front-face photoacoustic cell with a 2.25 MHz Panametrics transducer (model 5676) and a Tektronix DSA 601 transient recorder. Room-temperature singlet-oxygen phosphorescence was measured at 1270 nm with a Hamamatsu R5509-42 photomultiplier, cooled to 193 K in a liquid nitrogen chamber (Products for Research model PC176TSCE005), following laser excitation of aerated solutions at 355 nm, using an adapted Applied Photophysics spectrometer. Singlet oxygen emission at 1270 nm was also monitored with a liquid nitrogen-cooled germanium detector (North Coast) coupled to a Tectronix Digitizing scope (TDS 520B), following sample excitation with 5 ns laser pulses of the third harmonic (355 nm) generated by a Q-switched Nd:YAG laser (Continuum Surelite II).
as §1

[5] = Singlet oxygen quantum yield and lifetime (1270 nm phosphorescence); format: physicochemical; conditions: in aqueous solution

With `O=S(=O)(O)c1ccc(Cl)c(-c2c3nc(c(-c4cc(S(=O)(=O)O)ccc4Cl)c4ccc([nH]4)c(-c4cc(S(=O)(=O)O)ccc4Cl)c4nc(c(-c5cc(S(=O)(=O)O)ccc5Cl)c5ccc2[nH]5)CC4)C=C3)c1` [Luzitin-Cl-c, 5,10,15,20-tetrakis(2-chloro-5-sulfonylphenyl)chlorin] the “ΦF (fluorescence quantum yield)” value [1] was 0.039, the “LD50 (light dose to kill 50% of the cells)” value [2] was 0.26 J/cm^2 and the “LD90 (light dose to kill 90% of the cells)” value [2] was 0.46 J/cm^2. For the same compound, the “LD50 (light dose to kill 50% of the cells)” value [3] was 0.3 J/cm^2, the “LD90 (light dose to kill 90% of the cells)” value [3] was 0.7 J/cm^2 and the “LD50 (light dose to kill 50% of the cells)” value (S91 (mouse melanoma)) was 0.13 J/cm^2. The “LD90 (light dose to kill 90% of the cells)” value (S91 (mouse melanoma)) was 0.26 J/cm^2, the εmax [4] was 7,000 M^−1 cm^−1 and the λmax [4] was 650 nm. For the same compound, the “ΦΔ (singlet oxygen quantum yield)” value [5] was 0.69.
